Assay results from US20100113457A1, “NOVEL PYRIDAZINE DERIVATIVES” (SYNGENTA CROP PROTECTION, INC., priority 2006, published 2010).

Assays:
Alternaria Solani = assay: Alternaria solani / tomato / preventive; type: in vivo; details: 96 h, spray, tomato plants cv. Roter Gnom, assessed 4 days after inoculation, read-out: inhibition of fungal infestation
Protocol: (§1) Alternaria Solani/Tomato/Preventive (Action Against Alternaria on Tomato) 4 weeks old tomato plants cv. Roter Gnom are treated with the formulated test compound in a spray chamber. Two days after application tomato plants are inoculated by spraying a spore suspension on the test plants. After an incubation period of 4 days at 22° C./18° C. and 95% r. h. in a greenhouse the disease incidence is assessed.

[1] = system: Magnaporthe Grisea (Pyricularia oryzae); assay: whole plant or invertebrate; type: in vivo; details: 144 h, read-out: inhibition of fungal infestation
[2] = system: Prenophora Teres (Helminthosporium Teres); assay: Pyrenophora teres / barley / preventive (net blotch); type: in vivo; details: 96 h, spray, barley plants cv. Regina, assessed 4 days after inoculation, read-out: inhibition of fungal infestation
Protocol: Prenophora Teres (Helminthosporium Teres)/Barley/Preventive (Action Against Net Blotch on Barley) 1-week-old barley plants cv. Regina are treated with the formulated test compound in a spray chamber. Two days after application barley plants are inoculated by spraying a spore suspension (2.6×10^4 conidia/ml) on the test plants. After an incubation period of 4 days at 20° C. and 95% r. h. the disease incidence is assessed.

Botrytis Cinerea = assay: Botrytis cinerea / tomato / preventive; type: in vivo; details: 72 h, spray, tomato plants cv. Roter Gnom, assessed 3 days after inoculation, read-out: inhibition of fungal infestation
Protocol: as §1, with “Botrytis Cinerea/Tomato/Preventive (Action” for “Alternaria Solani/Tomato/Preventive (Action”, “Against Botrytis” for “Against Alternaria”, “of 3” for “of 4”, “at 20°” for “at 22° C./18°”

Uncinula Necator = assay: Uncinula necator / grape / preventive (powdery mildew); type: in vivo; details: Erysiphe necator, 168 h, spray, grape seedlings cv. Gutedel, assessed 7 days after inoculation, read-out: inhibition of fungal infestation
Protocol: Uncinula Necator/Drape/Preventive (Action Against Powdery Mildew on Grape) 5 weeks old grape seedlings cv. Gutedel are treated with the formulated test compound in a spray chamber. One day after application grape plants are inoculated by shaking plants infected with grape powdery mildew above the test plants. After an incubation period of 7 days at 24° C./22° C. and 70% r. h. under a light regime of 14/10 h (light/dark) the disease incidence is assessed.

Septoria Tritici = assay: Septoria tritici / wheat / preventive (leaf spot); type: in vivo; details: Zymoseptoria tritici, spray, wheat plants cv. Riband, assessed 16-18 days after inoculation, read-out: inhibition of fungal infestation
Protocol: Septoria Tritici/Wheat/Preventive (Action Against Septoria Leaf Spot on Wheat) 2 weeks old wheat plants cv. Riband are treated with the formulated test compound in a spray chamber. One day after application wheat plants are inoculated by spraying a spore suspension (10^6 conidia/ml) on the test plants. After an incubation period of 1 day at 22° C./21° C. and 95% r. h. plants are kept at 22° C./21° C. and 70% r.h. in a greenhouse. The disease incidence is assessed 16-18 days after inoculation.

Puccinia Recondita = assay: Puccinia recondita / wheat / preventive (brown rust); type: in vivo; details: 264 h, spray, wheat plants cv. Arina, assessed 11 days after inoculation, read-out: inhibition of fungal infestation
Protocol: Puccinia Recondita/Wheat/Preventive (Action Against Brown Rust on Wheat) 1 week old wheat plants cv. Arina are treated with the formulated test compound in a spray chamber. One day after application wheat plants are inoculated by spraying a spore suspension ([…] uredospores/ml) on the test plants. After an incubation period of 1 day at 20° C. and 95% r. h. plants are kept for 10 days 20° C./18° C. (day/night) and 60% r.h. in a greenhouse. The disease incidence is assessed 11 days after inoculation.

Cc1nnc(F)c(-c2c(F)cc(F)cc2F)c1-c1ccc(Cl)cc1 [I.c.127, 4-(4-chlorophenyl)-6-fluoro-3-methyl-5-(2,4,6-trifluorophenyl)-pyridazine]
inhibition at 200 ppm (Alternaria Solani): ≥ 80% | inhibition at 200 ppm [1]: ≥ 80% | inhibition at 200 ppm [2]: ≥ 80% | inhibition at 200 ppm (Botrytis Cinerea): ≥ 80% | inhibition at 200 ppm (Uncinula Necator): ≥ 80% | inhibition at 200 ppm (Septoria Tritici): ≥ 80% | inhibition at 200 ppm (Puccinia Recondita): ≥ 80%

Cc1nnc(OCC(F)(F)F)c(-c2c(F)cc(F)cc2F)c1-c1ccc(Cl)cc1 [I.c.129, 4-(4-chlorophenyl)-3-methyl-6-(2,2,2-trifluoroethoxy)-5-(2,4,6-trifluorophenyl)-pyridazine]
inhibition at 200 ppm (Alternaria Solani): ≥ 80% | inhibition at 200 ppm (Uncinula Necator): ≥ 80% | inhibition at 200 ppm (Septoria Tritici): ≥ 80% | melting point: 105 to 108 °C
